Source: patent US9290740B2, “Use of basic fibroblast growth factor in the de-differentiation of animal connective tissue cells” (Worcester Polytechnic Institute, priority 2008, dated 2016)

Tested on: Oct4, Sox2, Nanog, Rex1, Lin28, Klf4, TERT mRNA in adult human fibroblasts
Assay: RT-PCR and qRT-PCR of stem cell gene transcripts
Type: cell-based
Description: RNA was extracted using TRIzol® reagent (Invitrogen) according to the manufacturer's protocol and quantified by spectrophotometry. 2 μg of RNA was subjected to DNase I digestion, followed by a reverse transcription using a QuantiTech® Reverse transcription kit (Qiagen) with a mixture of oligo-dT and random hexamers primers. 50 ng/well of cDNA was used as template in qPCR reactions with oligonucleotides specific for the genes of interest (Table 1 of Supplementary Information). A non-template control (NTC) and an RNA sample without RT for each sample were used to control for potential contaminating DNA. All qPCR reactions were performed in triplicate with the resultant values being combined into an average threshold cycle (CT). The efficiency of qPCR was calculated from the slope of a relative standard curve using GAPDH primers. Relative quantification was determined using a 7500 Real Time PCR system (Applied Biosystems) measuring SYBR green fluorescence (PerfeCTa™ SYBR Green FastMix, Low ROX (Quanta Biosciences)). Fold differences are calculated using the ΔΔCT method with the formula 2^−ΔΔCt. (Liss, B., “Improved quantitative real-time RT-PCR for expression profiling of individual cells”, Nucleic Acids Research 30(17), e89, 2002). Expression profiles for the mRNA transcripts are shown as fold differences in comparison to mRNA levels in control (untreated) fibroblast cells.
Total RNA was isolated using Trizol (Invitrogen) following the manufacturer's protocol. Four μg of total RNA was used to perform first strand cDNA synthesis using Superscript (Invitrogen). For RT-PCR, 0.5 μl of the first strand cDNA was used as template. PCR was performed in Mg^2+ free PCR buffer (TaKara) supplemented with 1.5 mM MgCl2, 200 μM each of dNTPs, 25 pmoles each of forward and reverse primers and 0.5 U of TaKara ExTaq polymerase per reaction. PCR cycling was done as follows: Initial denaturation at 95° C. for 2 minutes followed by 35 cycles of denaturation at 95° C. for 15 seconds; annealing at primer-specific annealing temperature for 1 minute; and extension at 72° C. for 1:30 minutes. Final extension was done at 72° C. for 10 minutes and the samples held at 4° C. until use. Amplification products were resolved on 2% agarose gels containing 0.5 μg/ml ethidium bromide in 1×TAE buffer and photographed using a Kodak […] Image Station.

[1] = reduced oxygen culture plus FGF2

Substance: FGF2: human recombinant FGF2 (Invitrogen, Chemicon or Protide), basic fibroblast growth factor
- transcription of Oct4, Nanog and Klf4 (RT-PCR) (5% oxygen, FGF2 supplemented, day 7): increased
- transcription of Sox2, Rex1 and Lin28 (RT-PCR) (5% oxygen, day 7): significant transcriptional dependence on FGF2
- Lin28 mRNA levels (qRT-PCR) [1]: further increased
- Rex1 and TERT mRNA (qRT-PCR) [1]: not further affected
